Read-outs that look alike come from different tables or passages of the source. Where a SMILES comes first, the peptide text is derived from it. Bridges are numbered along the chain shown (N, C = ends). [ ]: non-standard residue; d: D form. The star is where a group is joined. Val(3-OH) = CC(C)(O)[C@H](N)C(=O)O; Tle = CC(C)(C)[C@H](N)C(=O)O; Ac6c = NC1(C(=O)O)CCCCC1; NHCH2tBu = CC(C)(C)CN*; Aib = CC(C)(N)C(=O)O; Sar = CNCC(=O)O
Key:
human AT1R = molecular target: T1, human AT1R (Homo sapiens, UniProt P30556); assay: beta-arrestin2 recruitment assay (PathHunter), human AT1R; type: cell-based; conditions: for Emax: 1 h, read-out: Span (relative to hAngII)
T1 sequence (P30556 1-359): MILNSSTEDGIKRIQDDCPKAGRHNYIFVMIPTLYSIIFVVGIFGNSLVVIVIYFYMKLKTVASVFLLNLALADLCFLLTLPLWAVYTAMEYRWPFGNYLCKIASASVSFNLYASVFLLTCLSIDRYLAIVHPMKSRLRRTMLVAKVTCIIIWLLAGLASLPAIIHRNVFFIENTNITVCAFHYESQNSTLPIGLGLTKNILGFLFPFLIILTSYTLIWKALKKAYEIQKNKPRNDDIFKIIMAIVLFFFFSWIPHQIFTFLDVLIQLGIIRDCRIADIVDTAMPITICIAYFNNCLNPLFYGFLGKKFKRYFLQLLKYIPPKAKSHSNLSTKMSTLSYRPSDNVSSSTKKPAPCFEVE
Experimental: (§1) The proximal event in β-arrestin function mediated by GPCRs is recruitment to receptors following ligand binding and receptor phosphorylation by GRK's. Thus, the measure of β-arrestin recruitment was used to determine ligand efficacy for β-arrestin function.
(§2) B-arrestin-2 recruitment to the human and rat angiotensin 2 type 1 receptor (human AT1R and rat AT1aR, respectively) was measured with the PathHunter™ μl-arrestin assay (DiscoveRx Corporation, Fremont Calif.). Cells, plasmid(s), and detection reagent(s) were purchased from DiscoveRx, and assays were performed per manufacturer's instructions. Human AT1R and rat AT1aR were cloned into the pCMV-ProLink vector, verified by sequencing, and transfected into PathHunter β-arrestin HEK293 cells. Stably transfected clonal cell lines were selected with Hygromycin and G418. These clonal cell lines were used for all experiments.
(§3) For assays, 4,000-8,000 cells were seeded per well in 384-well microplates “HiBase” small-volume plate in volumes of 20 uL and grown overnight in the incubator (37° C., 5% CO2, saturated humidity). Peptides were dissolved in DMSO to a concentration of 10 mM. Peptides were then further diluted in assay buffer (Hank's balanced salt solution with 20 mM HEPES) to add peptide to the cells to reach final concentrations ranging from 100 μM to 1 pM. Cells were then incubated for 60 minutes at 37° C. in 5% CO2, followed by addition of 2 μL of PathHunter Detection Reagent to each well. The microplates were then incubated at room temperature for 60 minutes, and then luminescence was measured using a PHERAstar Plus microplate reader from BMG Labtech. B-arrestin-2 recruitment to receptors was measured as relative luminescence intensity expressed in arbitrary units.

rat AT1aR = molecular target: T2, rat AT1aR (Rattus norvegicus, UniProt P25095); assay: beta-arrestin2 recruitment assay (PathHunter), rat AT1aR; type: cell-based; conditions: for Emax: 1 h, read-out: Span (relative to hAngII)
T2 sequence (P25095 1-359): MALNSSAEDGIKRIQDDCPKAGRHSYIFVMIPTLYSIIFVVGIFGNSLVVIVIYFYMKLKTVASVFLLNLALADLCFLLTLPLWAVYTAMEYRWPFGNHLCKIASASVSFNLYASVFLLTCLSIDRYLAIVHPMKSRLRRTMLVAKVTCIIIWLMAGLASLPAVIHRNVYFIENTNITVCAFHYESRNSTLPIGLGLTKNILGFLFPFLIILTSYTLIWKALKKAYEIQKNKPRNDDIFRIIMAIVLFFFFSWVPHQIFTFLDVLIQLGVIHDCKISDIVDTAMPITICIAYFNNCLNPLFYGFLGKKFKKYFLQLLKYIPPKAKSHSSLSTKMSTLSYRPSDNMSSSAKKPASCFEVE
Experimental: as §1, §2, §3

Structure (SMILES)	Emax (human AT1R)	EC50 (human AT1R; read-out: EC50)	EC50 (human AT1R; read-out: pEC50 (converted))	Emax (rat AT1aR)	EC50 (rat AT1aR; read-out: EC50)	EC50 (rat AT1aR; read-out: pEC50 (converted))
CC[C@H](C)[C@@H]1NC(=O)[C@H](NC(=O)[C@@H](NC(=O)[C@H](CCCNC(=N)N)NC(=O)CNC)C(C)C)CSSC[C@@H](C(=O)N[C@H](C)C(=O)O)NC(=O)[C@H](Cc2c[nH]cn2)NC1=O [SEQ ID NO: 52, Sar-Arg-Val-D-Cys-Ile-His-Cys-D-Ala] (H-[Sar]RV[dC]IHC[dA]-OH; disulfide 4-7; N-terminus and C-terminus assumed)	< 101%			< 105%		
CNCC(=O)N[C@@H](CCCNC(=N)N)C(=O)N[C@H](C(=O)N[C@@H](Cc1ccc(O)cc1)C(=O)NC(C)(C)C(=O)N[C@@H](Cc1c[nH]cn1)C(=O)N1CCC[C@H]1C(=O)N[C@H](C(=O)O)[C@@H](C)O)C(C)C [SEQ ID NO: 40, Sar-Arg-Val-Tyr-AA01-His-Pro-Thr] (H-[Sar]RVY[Aib]HPT-OH)	< 101%	> 3.2 nM	> 3.16 nM	< 105%	> 3.2 nM	> 3.16 nM
CNCC(=O)N[C@@H](CCCNC(=N)N)C(=O)N[C@H](C(=O)N[C@@H](Cc1ccc(O)cc1)C(=O)NC1(C(=O)N[C@@H](Cc2c[nH]cn2)C(=O)N2CCC[C@H]2C(=O)N[C@@H](CS)C(=O)O)CCCCC1)C(C)C [SEQ ID NO: 34, Sar-Arg-Val-Tyr-cyHex-His-Pro-Cys] (H-[Sar]RVY[Ac6c]HPC-OH)	< 101%	> 3.2 nM	> 3.16 nM	< 105%	> 3.2 nM	> 3.16 nM
CNCC(=O)N[C@@H](CCCNC(=N)N)C(=O)N[C@H](C(=O)N[C@@H](Cc1ccc(O)cc1)C(=O)N[C@H](C(=O)N[C@@H](Cc1c[nH]cn1)C(=O)N1CCC[C@H]1C(=O)N[C@H](C(=O)O)[C@@H](C)O)C(C)(C)C)C(C)C [SEQ ID NO: 30, Sar-Arg-Val-Tyr-AA02-His-Pro-Thr] (H-[Sar]RVY[Tle]HPT-OH)	< 101%	> 3.2 nM	> 3.16 nM	< 105%	> 3.2 nM	> 3.16 nM
CNCC(=O)N[C@@H](CCCNC(=N)N)C(=O)N[C@H](C(=O)N[C@@H](Cc1ccc(O)cc1)C(=O)NC1(C(=O)N[C@@H](Cc2c[nH]cn2)C(=O)N2CCC[C@H]2C(=O)O)CCCCC1)C(C)C [SEQ ID NO: 41, Sar-Arg-Val-Tyr-cyHex-His-Pro] (H-[Sar]RVY[Ac6c]HP-OH)	< 101%	> 3.2 nM	> 3.16 nM	< 105%	> 3.2 nM	> 3.16 nM
CCNC(=O)[C@@H]1CCCN1C(=O)[C@H](Cc1c[nH]cn1)NC(=O)C1(NC(=O)[C@H](Cc2ccc(O)cc2)NC(=O)[C@@H](NC(=O)[C@H](CCCNC(=N)N)NC(=O)CNC)C(C)C)CCCCC1 [SEQ ID NO: 48, Sar-Arg-Val-Tyr-cyHex-His-Pro-NH-ethyl] (H-[Sar]RVY[Ac6c]HP-NHEt)	< 101%	> 3.2 nM	> 3.16 nM	< 105%	> 3.2 nM	> 3.16 nM
CNCC(=O)N[C@@H](CCCNC(=N)N)C(=O)N[C@H](C(=O)N[C@@H](Cc1ccc(O)cc1)C(=O)NC1(C(=O)N[C@@H](Cc2c[nH]cn2)C(=O)N2CCC[C@H]2C(=O)NCC(=O)O)CCCCC1)C(C)C [SEQ ID NO: 32, Sar-Arg-Val-Tyr-cyHex-His-Pro-Gly] (H-[Sar]RVY[Ac6c]HPG-OH)	< 101%	> 3.2 nM	> 3.16 nM	< 105%	> 3.2 nM	> 3.16 nM
CNCC(=O)N[C@@H](CCCNC(=N)N)C(=O)N[C@H](C(=O)N[C@@H](Cc1ccc(O)cc1)C(=O)NC1(C(=O)N[C@@H](Cc2c[nH]cn2)C(=O)N2CCC[C@H]2C(=O)N[C@@H](CCC(=O)O)C(=O)O)CCCCC1)C(C)C [SEQ ID NO: 43, Sar-Arg-Val-Tyr-cyHex-His-Pro-Glu] (H-[Sar]RVY[Ac6c]HPE-OH)	< 101%	> 3.2 nM	> 3.16 nM	< 105%	> 3.2 nM	> 3.16 nM
CNCC(=O)N[C@@H](CCCNC(=N)N)C(=O)N[C@H](C(=O)N[C@@H](Cc1ccc(O)cc1)C(=O)NC1(C(=O)N[C@@H](Cc2c[nH]cn2)C(=O)N2CCC[C@H]2C(=O)NCC(C)(C)C)CCCCC1)C(C)C [SEQ ID NO: 47, Sar-Arg-Val-Tyr-cyHex-His-Pro-NH-neopentyl] (H-[Sar]RVY[Ac6c]HP-NHCH2tBu)	< 101%	> 3.2 nM	> 3.16 nM			

Now from value to compound:

Emax (human AT1R)	EC50 (human AT1R; read-out: EC50)	EC50 (human AT1R; read-out: pEC50 (converted))	Emax (rat AT1aR)	EC50 (rat AT1aR; read-out: EC50)	EC50 (rat AT1aR; read-out: pEC50 (converted))	Structure (SMILES)
< 101%	> 3.2 nM	> 3.16 nM	< 105%	> 3.2 nM	> 3.16 nM	CNCC(=O)N[C@@H](CCCNC(=N)N)C(=O)N[C@H](C(=O)N[C@@H](Cc1ccc(O)cc1)C(=O)NC1(C(=O)N[C@@H](Cc2c[nH]cn2)C(=O)N2CCC[C@H]2C(=O)N[C@@H](CC(N)=O)C(=O)O)CCCCC1)C(C)C [SEQ ID NO: 36, Sar-Arg-Val-Tyr-cyHex-His-Pro-Asn] (H-[Sar]RVY[Ac6c]HPN-OH)
< 101%	> 3.2 nM	> 3.16 nM	< 105%	> 3.2 nM	> 3.16 nM	CNCC(=O)N[C@@H](CCCNC(=N)N)C(=O)N[C@H](C(=O)N[C@@H](Cc1ccc(O)cc1)C(=O)NC1(C(=O)N[C@@H](Cc2c[nH]cn2)C(=O)N2CCC[C@H]2C(=O)N[C@@H](CCCCN)C(=O)O)CCCCC1)C(C)C [SEQ ID NO: 50, Sar-Arg-Val-Tyr-cyHex-His-Pro-Lys] (H-[Sar]RVY[Ac6c]HPK-OH)
< 101%	> 3.2 nM	> 3.16 nM	< 105%	> 3.2 nM	> 3.16 nM	CNCC(=O)N[C@@H](CCCNC(=N)N)C(=O)N[C@H](C(=O)N[C@@H](Cc1ccc(O)cc1)C(=O)NC1(C(=O)N[C@@H](Cc2c[nH]cn2)C(=O)N2CCC[C@H]2C(=O)NC(C)(C)C(=O)O)CCCCC1)C(C)C [SEQ ID NO: 35, Sar-Arg-Val-Tyr-cyHex-His-Pro-AA01] (H-[Sar]RVY[Ac6c]HP[Aib]-OH)
< 101%	> 3.2 nM	> 3.16 nM	< 105%	> 3.2 nM	> 3.16 nM	CNCC(=O)N[C@@H](CCCNC(=N)N)C(=O)N[C@H](C(=O)N[C@@H](Cc1ccc(O)cc1)C(=O)N[C@H](C(=O)N[C@@H](Cc1c[nH]cn1)C(=O)N1CCC[C@H]1C(=O)N[C@H](C(=O)O)C(C)C)C(C)(C)C)C(C)C [SEQ ID NO: 29, Sar-Arg-Val-Tyr-AA02-His-Pro-Val] (H-[Sar]RVY[Tle]HPV-OH)
< 101%	> 3.2 nM	> 3.16 nM	< 105%	> 3.2 nM	> 3.16 nM	CNCC(=O)N[C@@H](CCCNC(=N)N)C(=O)N[C@H](C(=O)N[C@@H](Cc1ccc(O)cc1)C(=O)NC1(C(=O)N[C@@H](Cc2c[nH]cn2)C(=O)N2CCC[C@H]2C(=O)N[C@H](C(=O)O)C(C)(C)O)CCCCC1)C(C)C [SEQ ID NO: 31, Sar-Arg-Val-Tyr-cyHex-His-Pro-AA03] (H-[Sar]RVY[Ac6c]HP[Val(3-OH)]-OH)
< 101%	> 3.2 nM	> 3.16 nM	< 105%	> 3.2 nM	> 3.16 nM	CNCC(=O)N[C@@H](CCCNC(=N)N)C(=O)N[C@H](C(=O)N[C@@H](Cc1ccc(O)cc1)C(=O)NC1(C(=O)N[C@@H](Cc2c[nH]cn2)C(=O)N2CCC[C@H]2C(=O)NC)CCCCC1)C(C)C [SEQ ID NO: 49, Sar-Arg-Val-Tyr-cyHex-His-Pro-NH-methyl] (H-[Sar]RVY[Ac6c]HP-NHMe)

From US8946142B2, “Beta-arrestin effectors and compositions and methods of use thereof” (Trevena, Inc., priority 2012, dated 2015)
